Values joined by “and” are separate entries in the source; they are usually repeats but may differ in a detail not shown here. Equal values may be shown once.
Experiments:
[1] = tested on: microglia in brain of MCAO/R mice; test: IBA1 staining of microglia (IHC, immunofluorescence); assay type: in vivo, mouse
[2] = tested on: neurons in cortex and hippocampus of MCAO/R mice; test: Nissl staining; assay type: in vivo, mouse
Protocol: Mice were anesthetized at 48 h after MCAO/R. Brain samples (bregma −2.06–1.94 mm) were collected and fixed by 4% paraformaldehyde for 12–18 h. Following sequential dehydration by 10%, 20%, and 30% sucrose, brains were put in frozen section embedding medium (SAKURA Tissue-Tek O.C.T. Compound, Japan) and cut into […] sections at the level of the frontal cortex (bregma: 1.0 to −1.94 mm) using a cryostat microtome (Leica CM1950). The sections were subsequently stained with Nissl staining.

MCAO/R mice [3] = test: Rotarod test; assay type: in vivo, mouse; conditions: VK 150 and 300 µg/kg i.p.
Protocol: The mice were placed in a RotaRod Treadmill (Harvard Apparatus, LE8205) for adaptive training 3 days before MACO/R. The rotating rod was started and the speed was set to accelerate to 40 rpm within 5 min. The mice drop time was recorded as an indicator. The test was performed at 24 and 48 h after MCAO/R.

[4] = tested on: HT22 hippocampal neuron cells (OGD/R); test: HT22 cell viability after OGD/R (CCK8)
brain of MCAO mice = test: Fluorescence imaging of FITC-labeled VK in brain of stroke mice; assay type: in vivo, mouse
Protocol: A successful MCAO model was established and these mice were used for subsequent experiments. Immediately after surgery, FITC or FITC-labeled VK were administered intravenously and mice were killed after 30 min to isolate the brain and imaged by an imaging system (IVIS Lumina II). For fluorescent imaging, the brain was immediately collected and kept in the dark for 0, 30, 60, and 90 min after the administration of VK. Frozen sections were prepared according to the above method (seen Morphological Assessment). Images were acquired by confocal microscopy (FV1000 MPE-B, Olympus).

[5] = VK stability in plasma (HPLC); assay type: in vitro ADME; conditions: plasma (species not given), pH 7.4, 37 °C, 750 rpm, at 120 min; VK 0.735 mM (Fig. 1 legend 73.5 nM); HPLC-UV 215 nm, peak area relative to 0 min; at least triplicate
Protocol: Proteolytic degradation of peptide-based drugs is generally considered as the main defect to limit systemic therapeutic applications. Therefore, high-performance liquid chromatography (HPLC) was used to assess the stability of VK in PBS or plasma at physiological pH (7.4) and temperature (37 °C). […] For neuropharmacology, crossing the BBB is a remarkable challenge, and VK was labeled with FITC in the N-terminus. FITC-labeled VK was then administered to stroke mice. After 30 min, these mice were imaged by an in vivo imaging system. […] Brains were collected at 0, 30, 60, 90, and 120 min and the distribution of VK was observed. […] To further evaluate whether VK was a cell-penetrating peptide, the oxygen-glucose deprivation/reoxygenation (OGD/R) model simulated I/R […] was established in HT22 hippocampal neuron cells and FITC-labeled VK was incubated for 120 min.
VK in PBS or plasma was detected by quantifying the peak areas relative to the initial peak areas (0 min). All stability tests were performed at least in triplicate.

MCAO/R mice [6] = test: Morris water maze test; assay type: in vivo, mouse; conditions: for Morris water maze latency to the platform (sheet block Fig.2h): individual animals
Protocol: To evaluate the spatial learning and memory ability of mice, the Morris water maze was performed after MCAO/R at 11, 12, 13, 14, and 15 days as described previously with minor modifications[66],[67]. […] Three trials were performed per day with the platform present and continuously detected for 4 days. Data from those trials were shown as the latency to locate the hidden platform on each day and were in indirect proportion to spatial learning abilities. A single 60 s probe test was performed on each mouse on the final day of testing. The platform was withdrawn and each mouse was placed at the same starting position in the pool and allowed to swim for 60 s. The investigator then recorded the time spent in the target quadrant, where the platform had previously been located. The latter measurements were interpreted as spatial memory.

HT22 cells (OGD/R) = test: Intracellular ROS (DCFH-DA, flow cytometry); assay type: cell-based, mouse; conditions: 24-h pretreatment with VK
[7] = tested on: IL-1β, TNF-α, IL-6, IL-8, IL-10 in ischemic cortex; test: Cytokine ELISA in ischemic cortex; assay type: in vivo, mouse; conditions: MCAO/R mice, 48 h
Protocol: Mice were decapitated under anesthesia at 48 h after MCAO/R. The IL-1β (Cat# 88-5019-88), TNF-α (Cat# 88-7324-22), IL-6 (Cat# 88-7064-88), and IL-8 (Cat# 88-8086-22) were purchased from Thermo Fisher Scientific. The levels of these proteins were measured by enzyme-linked immune sorbent assays (ELISA) kits, according to the manufacturer’s recommendations.

Gly-Arg-Pro-Hyp-Gly-Phe-Ser-Pro-Phe-Arg-Ile-Asp [VK, Vespakinin-M]
I/R-induced elevation of IBA1 expression in cerebral cortex [1]: greatly blunted
neuron morphology, Nissl staining [2]: morphologically intact neurons were broadly seen
sensorimotor function, rotarod test (MCAO/R mice [3]): improved functional performance and ameliorated the sensorimotor asymmetry
cell activity of HT22 cells after OGD/R [4]: enhanced cell activity
accumulation in brain, in vivo imaging (brain of MCAO mice; FITC-labeled VK i.v. to stroke mice, brain imaged after 30 min (IVIS Lumina II)): slightly accumulate in the ischemic region
penetration of BBB and cell membrane (conclusion) (brain of MCAO mice; under conditions such as cerebral I/R): can cross the BBB and cell membrane
degradation of VK in plasma [5]: completely degraded
Morris water maze latency to the platform (sheet block Fig.2h) (MCAO/R mice [6]; 11d after MCAO/R, VK 150 µg/kg, 60 s maximum): 46.96 and 55.37 and 56.98 and 48.52 and 58.61 and 60 and 58.12
Morris water maze latency to the platform (sheet block Fig.2h) (MCAO/R mice [6]; 11d after MCAO/R, VK 300 µg/kg, 60 s maximum): 51 and 55.8
Morris water maze latency to the platform (sheet block Fig.2h) (MCAO/R mice [6]; 12d after MCAO/R, VK 150 µg/kg): 35.17 and 36.55 and 38.29 and 31.14 and 35.03 and 46.91 and 50.97
Morris water maze latency to the platform (sheet block Fig.2h) (MCAO/R mice [6]; 12d after MCAO/R, VK 300 µg/kg): 43.25 and 49.34 and 39.87 and 44.13 and 49.62 and 33.65
Morris water maze latency to the platform (sheet block Fig.2h) (MCAO/R mice [6]; 13d after MCAO/R, VK 150 µg/kg): 12.69 and 22.64 and 25.57 and 20.24 and 33.84 and 30.46 and 33.85
Morris water maze latency to the platform (sheet block Fig.2h) (MCAO/R mice [6]; 13d after MCAO/R, VK 300 µg/kg): 24.06 and 46.35 and 29.58 and 38.44 and 42.39 and 44
Morris water maze latency to the platform (sheet block Fig.2h) (MCAO/R mice [6]; 14d after MCAO/R, VK 150 µg/kg): 8.5 and 15.36 and 20.6 and 19.38 and 15.89 and 10.11 and 29.75
Morris water maze latency to the platform (sheet block Fig.2h) (MCAO/R mice [6]; 14d after MCAO/R, VK 300 µg/kg): 18.28 and 40.48 and 16.15 and 23.59 and 39.68 and 25.37
spatial learning, escape latency (MCAO/R mice [6]; day 11–14 after MCAO/R): decreased escape latency
spatial memory, probe trial vs vehicle (MCAO/R mice [6]; day 15 after MCAO/R): more crossovers and spent more time in the platform quadrant
OGD-induced ROS levels (HT22 cells (OGD/R)): rescue the OGD-induced ROS levels
IL-10 level in ischemic cortex vs vehicle [7]: increase in IL-10 levels
IL-1β, TNF-α, IL-6 and IL-8 levels in cortex of the ischemic hemisphere vs vehicle ([7]; VK 150 and 300 µg/kg): decreased IL-1β, TNF-α, IL-6, and IL-8 levels

Source: publication PMC8776894 (Communications Biology, 2022)
